From ChEMBL document CHEMBL5465560, “Selectivity Literature for EUbOPEN Chemogenomic Library” (2024)

Legend:
[1] = target: Serine/threonine-protein kinase B-raf (Homo sapiens) (UniProt P15056); experiment: Selectivity interaction (Kinase panel (DSF assay)) EUB0001559a BRAF
[2] = target: Tyrosine-protein kinase ABL2 (Homo sapiens, UniProt P42684); experiment: Selectivity interaction (KinomeScan (DiscoverX)) EUB0000595a ABL2; conditions: at 10 µM
[3] = target: T1, cGMP-dependent protein kinase 1 (Homo sapiens) (UniProt Q13976); experiment: Selectivity interaction (Ambit KINOMEscan and KiNATiv profiling in Jurkat cells) EUB0000090b PRKG1; format: cell-based; conditions: at 1 µM
T1 sequence (whole entry): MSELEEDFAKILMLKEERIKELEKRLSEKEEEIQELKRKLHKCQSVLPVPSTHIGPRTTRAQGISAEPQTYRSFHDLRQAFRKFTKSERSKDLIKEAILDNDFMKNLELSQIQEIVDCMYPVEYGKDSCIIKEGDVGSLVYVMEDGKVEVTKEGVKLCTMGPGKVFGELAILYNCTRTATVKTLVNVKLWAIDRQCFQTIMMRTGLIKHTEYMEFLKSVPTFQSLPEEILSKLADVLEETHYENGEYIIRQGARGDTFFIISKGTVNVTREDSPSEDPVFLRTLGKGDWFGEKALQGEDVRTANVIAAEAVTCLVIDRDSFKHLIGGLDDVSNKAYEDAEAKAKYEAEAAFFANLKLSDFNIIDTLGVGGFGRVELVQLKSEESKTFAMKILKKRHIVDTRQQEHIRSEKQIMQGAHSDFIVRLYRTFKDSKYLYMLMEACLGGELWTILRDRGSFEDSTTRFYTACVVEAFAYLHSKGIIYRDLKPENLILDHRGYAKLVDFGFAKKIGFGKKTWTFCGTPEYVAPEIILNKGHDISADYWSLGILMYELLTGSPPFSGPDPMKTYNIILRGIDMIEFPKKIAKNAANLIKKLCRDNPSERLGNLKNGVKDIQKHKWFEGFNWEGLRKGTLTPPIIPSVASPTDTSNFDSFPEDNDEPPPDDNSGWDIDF

[4] = target: Casein kinase I isoform alpha (Homo sapiens, UniProt P48729); conditions: at 10 µM
[5] = target: T2, Dual specificity mitogen-activated protein kinase kinase 6 (Homo sapiens) (UniProt P52564); experiment: Selectivity interaction (ActivX KiNativ screen (ex vivo kinase selectivity in human PBMCs)) EUB0001619a MAP2K6; format: cell-based; conditions: PBMC, at 1 µM
T2 sequence (whole entry): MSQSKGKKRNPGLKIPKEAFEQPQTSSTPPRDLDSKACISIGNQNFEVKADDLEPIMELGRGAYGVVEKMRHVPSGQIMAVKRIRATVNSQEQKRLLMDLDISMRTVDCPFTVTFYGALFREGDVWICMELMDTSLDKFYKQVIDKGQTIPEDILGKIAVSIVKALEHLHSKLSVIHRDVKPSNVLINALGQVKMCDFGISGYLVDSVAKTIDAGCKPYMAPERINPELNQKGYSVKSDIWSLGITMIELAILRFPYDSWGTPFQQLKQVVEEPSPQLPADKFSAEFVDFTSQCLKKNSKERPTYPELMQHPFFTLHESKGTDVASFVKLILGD

[6] = target: Mitogen-activated protein kinase 1 (Homo sapiens, UniProt P28482); experiment: Selectivity interaction (ActivX KiNativ screen (ex vivo kinase selectivity in human PBMCs)) EUB0001619a MAPK1; format: cell-based; conditions: PBMC, at 1 µM
[7] = target: T3, Serine/threonine-protein kinase BRSK1 (Homo sapiens) (UniProt Q8TDC3); experiment: Selectivity interaction (KinomeScan (DiscoverX)) EUB0000655a BRSK1; conditions: at 10 µM
T3 sequence (whole entry): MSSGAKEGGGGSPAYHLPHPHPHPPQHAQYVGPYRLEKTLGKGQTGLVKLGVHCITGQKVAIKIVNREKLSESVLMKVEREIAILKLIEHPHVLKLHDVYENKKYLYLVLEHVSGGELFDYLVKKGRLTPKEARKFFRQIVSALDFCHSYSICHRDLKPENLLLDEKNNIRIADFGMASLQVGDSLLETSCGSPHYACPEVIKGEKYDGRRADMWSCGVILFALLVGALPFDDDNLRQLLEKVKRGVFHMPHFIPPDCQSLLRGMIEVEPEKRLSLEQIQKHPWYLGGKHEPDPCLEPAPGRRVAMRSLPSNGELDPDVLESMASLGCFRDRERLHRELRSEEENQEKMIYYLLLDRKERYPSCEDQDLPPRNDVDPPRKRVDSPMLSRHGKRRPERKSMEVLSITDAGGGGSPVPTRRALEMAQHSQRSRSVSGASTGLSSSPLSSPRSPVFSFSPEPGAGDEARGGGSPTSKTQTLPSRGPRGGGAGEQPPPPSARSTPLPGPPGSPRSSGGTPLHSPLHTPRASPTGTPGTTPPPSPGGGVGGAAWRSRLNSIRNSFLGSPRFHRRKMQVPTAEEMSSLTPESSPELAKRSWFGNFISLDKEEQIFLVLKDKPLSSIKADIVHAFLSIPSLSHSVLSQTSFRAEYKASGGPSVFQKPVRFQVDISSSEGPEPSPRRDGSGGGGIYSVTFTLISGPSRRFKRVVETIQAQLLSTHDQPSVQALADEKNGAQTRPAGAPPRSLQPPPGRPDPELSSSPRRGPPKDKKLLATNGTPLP

[8] = target: T4, Non-receptor tyrosine-protein kinase TNK1 (Homo sapiens) (UniProt Q13470); experiment: Selectivity interaction (KinomeScan (DiscoverX)) EUB0000607a TNK1; conditions: at 10 µM
T4 sequence (whole entry): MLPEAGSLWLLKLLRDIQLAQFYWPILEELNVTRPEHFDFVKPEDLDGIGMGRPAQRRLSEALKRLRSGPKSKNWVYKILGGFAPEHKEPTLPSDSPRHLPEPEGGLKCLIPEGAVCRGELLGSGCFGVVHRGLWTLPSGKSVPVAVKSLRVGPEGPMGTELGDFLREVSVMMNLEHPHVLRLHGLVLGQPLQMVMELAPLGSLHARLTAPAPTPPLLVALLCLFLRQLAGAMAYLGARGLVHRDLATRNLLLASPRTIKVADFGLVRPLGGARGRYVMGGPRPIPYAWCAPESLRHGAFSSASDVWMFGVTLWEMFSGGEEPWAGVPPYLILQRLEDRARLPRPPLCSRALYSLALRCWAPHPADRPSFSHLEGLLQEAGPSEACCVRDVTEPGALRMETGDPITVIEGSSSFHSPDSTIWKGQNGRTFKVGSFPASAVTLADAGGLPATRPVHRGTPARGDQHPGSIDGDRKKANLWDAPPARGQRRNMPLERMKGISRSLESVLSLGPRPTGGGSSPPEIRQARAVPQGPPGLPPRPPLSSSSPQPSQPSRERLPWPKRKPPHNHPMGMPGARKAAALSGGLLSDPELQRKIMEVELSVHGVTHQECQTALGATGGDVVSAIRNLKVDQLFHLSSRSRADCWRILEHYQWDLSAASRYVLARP

[9] = target: Serine/threonine-protein kinase Nek7 (Homo sapiens) (UniProt Q8TDX7); experiment: Selectivity interaction (Kinase panel (Z-LYTE Assay)) EUB0001632a NEK7; conditions: at 10 µM
Serine/threonine-protein kinase Nek7 (Homo sapiens), sequence (Q8TDX7 whole entry, looked up): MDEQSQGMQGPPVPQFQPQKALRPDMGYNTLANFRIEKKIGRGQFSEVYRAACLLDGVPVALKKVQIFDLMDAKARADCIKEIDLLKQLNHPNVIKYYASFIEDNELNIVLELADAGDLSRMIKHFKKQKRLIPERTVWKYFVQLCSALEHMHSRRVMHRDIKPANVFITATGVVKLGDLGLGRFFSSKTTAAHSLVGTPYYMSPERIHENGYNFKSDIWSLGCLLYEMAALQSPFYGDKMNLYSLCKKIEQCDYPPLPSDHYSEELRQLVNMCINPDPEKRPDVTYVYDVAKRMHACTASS

Serine/threonine-protein kinase B-raf (Homo sapiens), sequence (P15056 whole entry): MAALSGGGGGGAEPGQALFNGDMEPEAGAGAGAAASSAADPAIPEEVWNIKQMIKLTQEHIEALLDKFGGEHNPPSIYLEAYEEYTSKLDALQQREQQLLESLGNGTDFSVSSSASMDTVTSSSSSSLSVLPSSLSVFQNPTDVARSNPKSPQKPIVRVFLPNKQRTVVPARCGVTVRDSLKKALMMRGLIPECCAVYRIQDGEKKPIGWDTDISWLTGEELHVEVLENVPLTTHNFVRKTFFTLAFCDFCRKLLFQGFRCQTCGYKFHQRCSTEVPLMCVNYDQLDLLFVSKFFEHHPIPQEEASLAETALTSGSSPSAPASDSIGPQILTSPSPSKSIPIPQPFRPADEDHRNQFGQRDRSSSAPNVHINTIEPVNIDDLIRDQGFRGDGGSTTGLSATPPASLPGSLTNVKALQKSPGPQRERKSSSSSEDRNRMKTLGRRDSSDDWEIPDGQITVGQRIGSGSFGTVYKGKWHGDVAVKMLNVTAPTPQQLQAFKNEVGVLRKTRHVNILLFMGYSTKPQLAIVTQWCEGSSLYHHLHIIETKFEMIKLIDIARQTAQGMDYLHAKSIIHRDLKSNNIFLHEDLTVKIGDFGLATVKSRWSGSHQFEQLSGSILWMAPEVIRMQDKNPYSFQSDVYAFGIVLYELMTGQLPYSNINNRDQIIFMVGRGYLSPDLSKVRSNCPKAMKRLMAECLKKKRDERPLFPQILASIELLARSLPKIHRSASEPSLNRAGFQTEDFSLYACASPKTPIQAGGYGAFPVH
Tyrosine-protein kinase ABL2, sequence (P42684 whole entry): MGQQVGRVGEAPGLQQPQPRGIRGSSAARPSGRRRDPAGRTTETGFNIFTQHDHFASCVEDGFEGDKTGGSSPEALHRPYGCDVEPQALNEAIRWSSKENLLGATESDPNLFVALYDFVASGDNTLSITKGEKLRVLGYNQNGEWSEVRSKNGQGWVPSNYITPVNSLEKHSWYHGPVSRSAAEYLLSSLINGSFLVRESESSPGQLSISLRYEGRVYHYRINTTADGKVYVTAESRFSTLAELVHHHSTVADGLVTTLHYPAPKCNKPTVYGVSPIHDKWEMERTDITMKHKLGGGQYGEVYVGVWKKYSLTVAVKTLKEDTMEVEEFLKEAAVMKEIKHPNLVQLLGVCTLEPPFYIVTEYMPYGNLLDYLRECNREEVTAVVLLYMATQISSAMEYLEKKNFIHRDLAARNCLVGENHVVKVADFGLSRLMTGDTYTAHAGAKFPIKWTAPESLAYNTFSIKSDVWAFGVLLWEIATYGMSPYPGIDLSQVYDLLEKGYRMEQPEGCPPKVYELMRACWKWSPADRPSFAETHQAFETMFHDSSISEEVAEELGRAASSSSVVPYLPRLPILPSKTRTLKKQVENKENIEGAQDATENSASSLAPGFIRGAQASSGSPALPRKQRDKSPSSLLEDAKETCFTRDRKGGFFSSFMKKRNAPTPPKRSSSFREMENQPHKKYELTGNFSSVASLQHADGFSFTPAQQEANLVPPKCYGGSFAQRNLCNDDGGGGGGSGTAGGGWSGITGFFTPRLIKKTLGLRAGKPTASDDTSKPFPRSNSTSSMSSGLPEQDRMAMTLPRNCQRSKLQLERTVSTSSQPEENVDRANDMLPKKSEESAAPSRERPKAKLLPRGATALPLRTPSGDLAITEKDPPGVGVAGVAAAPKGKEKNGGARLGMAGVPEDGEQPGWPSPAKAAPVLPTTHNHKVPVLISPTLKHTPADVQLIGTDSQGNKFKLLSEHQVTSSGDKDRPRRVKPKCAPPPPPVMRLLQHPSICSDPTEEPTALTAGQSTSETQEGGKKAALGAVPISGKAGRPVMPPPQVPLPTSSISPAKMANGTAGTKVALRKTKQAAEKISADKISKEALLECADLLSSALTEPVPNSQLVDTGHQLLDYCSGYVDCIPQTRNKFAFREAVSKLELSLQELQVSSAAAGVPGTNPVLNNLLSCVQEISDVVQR
Casein kinase I isoform alpha, sequence (P48729 2-337 limits assumed): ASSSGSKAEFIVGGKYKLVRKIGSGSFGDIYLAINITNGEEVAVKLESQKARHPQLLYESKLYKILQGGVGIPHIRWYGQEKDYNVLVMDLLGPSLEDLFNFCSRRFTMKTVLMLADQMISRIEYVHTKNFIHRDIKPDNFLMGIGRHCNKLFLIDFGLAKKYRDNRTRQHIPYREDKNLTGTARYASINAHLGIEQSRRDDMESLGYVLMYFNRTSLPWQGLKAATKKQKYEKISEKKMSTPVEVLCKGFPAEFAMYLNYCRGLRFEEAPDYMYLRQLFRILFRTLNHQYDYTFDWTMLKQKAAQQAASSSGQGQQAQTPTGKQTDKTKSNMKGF
Mitogen-activated protein kinase 1, sequence (P28482 whole entry): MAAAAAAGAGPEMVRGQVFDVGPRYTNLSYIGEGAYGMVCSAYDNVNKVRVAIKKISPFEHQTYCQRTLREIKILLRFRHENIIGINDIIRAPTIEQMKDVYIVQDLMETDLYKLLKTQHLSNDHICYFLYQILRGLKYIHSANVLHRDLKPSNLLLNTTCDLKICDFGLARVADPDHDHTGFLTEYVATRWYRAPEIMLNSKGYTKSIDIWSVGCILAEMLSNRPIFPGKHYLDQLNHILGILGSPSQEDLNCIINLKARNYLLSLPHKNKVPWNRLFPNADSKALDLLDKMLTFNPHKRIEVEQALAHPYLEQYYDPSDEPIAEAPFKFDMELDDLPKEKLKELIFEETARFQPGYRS

CN(C(=O)c1cnn2cccnc12)c1cc2c(cc1N1CCOCC1)C(=O)N(C[C@@H](F)C(C)(C)O)C2
dTM [1]: 1.7 K

COCC(=O)NC/C=C/c1ccc2ncnc(Nc3ccc(Oc4ccc(C)nc4)c(C)c3)c2c1 [CP-724714]
% of control [2]: 100%

CN(C)C/C=C/C(=O)Nc1ccc(C(=O)N2CCCC(Nc3ncc(Cl)c(-c4c[nH]c5ccccc45)n3)C2)cc1 (centres undefined)
% of control [3]: 97%

Cc1cc([C@@H](C)Nc2ccccc2C(=O)O)c2nc(N3CCOCC3)cc(=O)n2c1 [AZD-6482]
% of control [4]: 63%

N#Cc1cccc(-c2c[nH]c3ncnc(N4CCOCC4)c23)c1
% of inhibition [5]: 14% | % of inhibition [6]: 3%

CN(C)CCOc1ccc(-c2nc(-c3ccncc3)c(-c3ccc4c(c3)CC/C4=N\O)[nH]2)cc1
% of control [7]: 76%

CNC(=O)Nc1ccc(-c2nc(N3CC4CCC(C3)O4)c3cnn(C4CCC5(CC4)OCCO5)c3n2)cc1
% of control [8]: 78%

Cn1cc(-n2cnc3c(NCc4nc5cc(Cl)c(Cl)cc5[nH]4)nc(N4CCOCC4)nc32)cn1
% of control [9]: -10.9%
